Assay [1] deals with BM hematopoietic stem and progenitor cells. The assay can be described thus: Hematopoietic regeneration in C57B16 mice after 700 cGy TBI (progenitor assays, competitive repopulation). It counts as in vivo, mouse. Here is the method:
BM cells were collected into PBS (Cellgro, Manassas, Va.) with 10% fetal bovine serum (Hyclone, Logan, Utah) and 1% penicillin/streptomycin (GIBCO, Grand Island, N.Y.). Viable BM cells were quantified using Trypan Blue Stain (Lonza, Basel, Switzerland) to exclude apoptotic and dead cells. Cells were then incubated with anti-c-kit, anti-Sca-1, anti-lineage cocktail, anti-CD41, anti-CD48, and anti-CD150 antibodies (Biolegend and eBiosciences, San Diego, Calif.; BD, San Jose, Calif.) to measure ckit^+sca-1^+lin^− (KSL) progenitor cells or CD150′CD41^−CD48^−KSL (SLAM/KSL) as previously described (Kiel et al, Cell 121:1109-1121 (2005)). Colony forming cells (CFCs) and CFU-S12 assays were also performed to measure functional hematopoietic stem/progenitor cell content. For CFCs, either whole BM or cultured lineage−cells, or KSL cells were plated onto methylcellulose (StemCell Technologies, Vancouver, BC, Canada), and colonies were scored on day 14. 1×10^5 BM or 2×10^5 cells were collected from donor mice and injected via tail vein into recipient C57B16 mice that had been given 950 cGy TBI. At day +12 post-injection, spleens from recipient mice were harvested and stained with Bouin's fixative solution (Ricca Chemical Company, Arlington, Tex.), and colonies were counted as previously described (Till and MeRadiat. Res. 14:213-222 (1961)). Complete blood counts were performed on a HemaVet 950 (Drew Scientific, Dallas, Tex.).
Competitive repopulation assays were also performed using donor C57B16 mice (CD45.2^+) that had been irradiated with 700 cGy TBI and gavaged daily with 10 μg/G erlotinib (Genentech, San Francisco, Calif.) or 150 μl water beginning on day 0 and continued through day +14. Donor BM cells were injected via tail vein into recipient B6.SJL mice (CD45.1^+) at a dose of 5×10^5 cells with a competing dose of host 1×10^5 BM MNCs. Tie2Cre;Bak1^−/−;Bax^FL/− mice were gavaged daily with 10 μg/G erlotinib or water starting day −3 and given 300 cGy TBI on day 0. Erlotinib administration continued until the timepoint of donor BM cell collection and analysis. Tie2Cre;Bak1^−/−;Bax^FL/− BM cells were injected via tail vein into recipient CD45.1^+ mice at a cell dose of 3×10^5 cells with a competing dose of host 1×10^5 CD45.1^+ cells. Multilineage hematopoietic reconstitution was measured in the PB of recipient mice by flow cytometry at 4, 8, and 12 weeks post-transplant. For survival studies with erlotinib administration, C57B16 mice were exposed to 700 cGy and then given 10 μg/G erlotinib or water starting day −3 and continuing daily through day +14.
Ten micrometer sections were cut using they CryoJane tape system (Instrumedics Inc, Hackensack, N.J., USA). Femurs were stained with hematoxylin and eosin or anti-mouse endothelial cell antibody (MECA-32) as previously described (Salter et al, Blood 113:2104-2107 (2009)) to assess BM cellularity and the BM vasculature after irradiation. Images were obtained using an Axiovert 200 microscope (Carl Zeiss Microscopy, Thornwood, N.Y.) or a Leica SP5 confocal microscope (Leica Microsystems Inc, Buffalo Grove, Ill.). Adobe Photoshop software (version 9.0.2, Adobe Systems, San JoSe, Calif.) was used to quantify positive signal as a measure of spatial distribution in the fields (Lehr et al, J. Histochem. Cytochem. 45:1559-1565 (1997), Lehr et al, J. Histochem. Cytochem. 47:119-126 (1999)).

The test system of the next assay is EGFR. The experiment in a line: Phosphorylation of EGFR-Y845 in BM KSL cells in culture. It counts as cell-based, mouse. The following applies: wild type BM KSL cells treated with EGF in vitro (20 ng/mL, 15 minutes).
Another assay concerns BM 34-KSL cells. The experiment in a line: Competitive transplantation of the progeny of cultured BM 34-KSL cells. It counts as cell-based, mouse. The following applies: progeny of 300 cGy-irradiated, EGF-treated BM 34-KSL cells; 8 weeks post-transplant.
The next assay relates to DNA-PK. The experiment in a line: Phosphorylation of DNA-PK in irradiated BM lin- cells. It counts as cell-based, mouse. The following applies: 300 cGy BM lin- cells, EGF 20 ng/ml, vs cytokines alone. Here is the method:
The phosphorylation of the T2647 domain of DNA-PK was measured using immunofluorescence and flow cytometric analysis. […] Cells were separated onto a glass slide, fixed with 4% paraformaldehyde and permeabilized with 0.3% Triton-X. Cells were stained with rabbit polyclonal DNA-PK or rabbit IgG (Abeam, Cambridge, Mass.) and donkey anti-rabbit Alexafluor 488 antibody and counterstained with Hoechst 33342 (Life Technologies, Grand Island, N.Y.).

A further assay concerns MAPK. The assay can be described thus: Phosphorylation of MAPK in irradiated BM KSL cells. Format: cell-based, mouse. The conditions noted are these: EGF treatment of irradiated BM KSL cells in culture; data not shown. The source says:
EGFR signaling can activate multiple signaling cascades, including the MAPK and PI3k/Akt signaling pathways (Sordella et al, Science 305:1163-1167 (2004), Yang et al, Nature 480:118-122 (2011), Hynes and Lane, Nat. Rev. Cancer 5:341-354 (2005), Wheeler et al, Nat. Rev. Clin. Oncol. 7:493-507 (2010)). […] A further examination was made of whether inhibition of Akt signaling could negate EGF-mediated induction of BM stem/progenitor cell cycling following irradiation.

The subject of assay [2] is BM KSL cells. The assay can be described thus: BrdU incorporation in BM KSL cells in vivo after 700 cGy TBI. Further details: species or system mouse. The following applies: day +7 following 700 cGy TBI, EGF daily x 7 days, vs saline. Here is the method:
Cell proliferation was measured in C57B16 mice exposed to 700 cGy TBI and administered 5-bromo-2-deoxyridine (BrdU, BD) in drinking water from the day of irradiation until day +7. BM cells were labeled with anti-cKit PE, anti-scal PE-Cy7, anti-lineage APC, and anti-BrdU FITC. Incorporation of BrdU was analyzed by flow cytometry according to the manufacturer's staining protocol (BD).

Assay [3] concerns BM KSL cells. The assay can be described thus: Culture of non-irradiated BM KSL cells with TSF with and without EGF. The conditions noted are these: TSF + 20 ng/ml EGF, 7 days, vs cytokines alone. Format: cell-based, mouse.
Another assay has as its system C57B16 mice. The experiment in a line: Survival of C57B16 mice after 700 cGy TBI. It counts as in vivo, mouse. The conditions noted are these: 0.5 ug/G EGF daily x 7 days from +2 hours, saline controls 57%.
[4] abbreviates: 700 cGy TBI, EGF 0.5 ug/G IP daily x 7 days, day +7.

“Also recorded” adds a separate entry of the source.

For “EGF: epidermal growth factor; recombinant EGF (R&D Systems)”, in assay [1] (setting [4]), the “increased BM KSL progenitor cells vs saline” value was found to be 6 fold, the “increased BM cells vs saline” value is 2 fold, the “increased CFCs vs saline” value is 7 fold and the “increased CFU-S12 vs saline” value was determined as 8 fold. In assay [1] (700 cGy TBI, EGF daily x 7 days, day +7), the BM cellularity entry is “preserved BM cellularity; also recorded: largely preserved”. In assay [1] (700 cGy TBI, EGF x 7 days, BM at day +7, vs saline), the “BM HSC content by competitive repopulation assay” value is reported as “significantly increased”. In addition, the “multilineage reconstitution of myeloid cells, B cells and T cells in recipients” value in assay [1] (BM from irradiated EGF-treated mice, 12 weeks post-transplant, vs saline) is “increased multilineage reconstitution”. Moreover, the “repopulating cell content (donor stem cell engraftment in recipients)” value in assay [1] (Example 1, BM at day +7 or day +14 following 700 cGy TBI, EGF vs saline) is listed as “significantly higher repopulating cell content”. Further, the “recovery of bone marrow stem and progenitor cells” value in assay [1] (Example 1, recombinant EGF via intraperitoneal injection into irradiated wild type mice, vs controls) is recorded as “marked acceleration”. Moreover, the “engraftment in secondary transplant recipients at 12 weeks” value in assay [1] (donor BM collected at day +7 following TBI, data not shown) is recorded as “no significant engraftment”. Besides, the “donor cell repopulation in secondary transplant recipients at 12 weeks” value in assay [1] (donor BM collected at day +14 following TBI from EGF-treated mice, vs saline) is recorded as “significantly increased; also recorded: markedly increased donor cell repopulation”. Besides, the “EGFR signaling as measured by EGFR phosphorylation” value with EGFR was “induced EGFR signaling”. Besides, the “donor hematopoietic cell repopulation, higher vs cytokine cultures alone” value in the assay with BM 34-KSL cells was found to be 3 fold. In addition, the “phospho-DNA-PK levels by immunofluorescence staining” value with DNA-PK (15 minutes) is “increased phospho-DNA-PK; also recorded: significant increase”. The “phospho-DNA-PK levels by FACS analysis” value with DNA-PK (1 hour) was “increased phospho-DNA-PK; also recorded: significant increase”. Moreover, in the assay with MAPK, the “phosphorylation of MAPK” value was “did not alter the phosphorylation of MAPK”. Besides, in the assay on BM KSL cells [2], the “BrdU incorporation in BM KSL cells” value is recorded as “significantly increased; also recorded: marked increase”. Besides, the “expansion of BM KSL cells and CFU-S12” value in the assay on BM KSL cells [3] is on record as “increased significantly; also recorded: significant expansion”. Besides, in the assay on C57B16 mice, the “mice alive and well through day +30” value is given as 93%.

The values above are taken from patent publication US20130331326A1, “METHOD OF INDUCING HEMATOPOIETIC RECONSTRUCTION” (DUKE UNIVERSITY, priority 2011, published 2013).
